Values joined by “and” are separate entries in the source; they are usually repeats but may differ in a detail not shown here. Equal entries are not always repeated.
Key:
[1] = Critical micellar concentration (CMC) by hydrophobic fluorescence stain diphenylhexatriene (DPH); assay type: physicochemical
Source text: A method of measuring the CMC is not particularly limited, but the methods widely known in the related art may be used. For example, the CMC may be measured by a fluorescence detection method using diphenylhexatriene (DPH).
(§1) To determine characteristics of the MNAs of Preparative Example 1 to 10 synthesized according to the synthesis method of Example 1, the molecular weights (M.W.) and critical micellar concentrations (CMCs) of the MNAs and the hydrodynamic radii (Rh) of the formed micelles were measured.
(§2) Specifically, the critical micellar concentration (CMC) was measured using a hydrophobic fluorescence stain (diphenylhexatriene (DPH)), and the hydrodynamic radii (Rh) of the micelles formed by each of the preparations were measured by a dynamic light scattering (DLS) experiment. The measured results were compared to those of DDM that is a conventional amphipathic molecule (a detergent), and are listed in Table 1.

[2] = Hydrodynamic radius and size distribution of micelles by dynamic light scattering (DLS); assay type: physicochemical
Source text: A method of measuring the radius of the micelle is not particularly limited, but the methods widely known in the related art may be used. For example, the radius of the micelle may be measured using a dynamic light scattering (DLS) experiment.
as §1, §2
Meanwhile, the size distributions of the micelles formed by the MNAs were measured using DLS, and the measurement results are shown in FIG. 17. The MNAs were used at a content of 1.0% by weight.

[3] = target: T1, human β2 adrenergic receptor (β2AR) (Homo sapiens, UniProt P07550); assay: Negative-stain electron microscopy (EM) of β2AR dissolved in detergent; conditions: negative staining, compared to DDM, FIG. 24
T1 construct: made in house
Method: A β2AR protein analysis test was performed for DDM, MNA-6, or MNA-7 using an electron microscope.
Specifically, samples were prepared using the conventional negative staining protocol disclosed in the article by M. Ohi et al. (Biol. Proced. Online 2004, 6, 23-34.). In summary, 3 μL of β2AR dissolved in DDM, MNA-6, or MNA-7 was pipetted onto a glow-discharged carbon-coated grid, and stained with 1% (w/v) uranyl formate. Thereafter, the β2AR was imaged at room temperature by running a Morgagni 268(D) transmission electron microscope (FEI Company) at 100 kV. The images were recorded at 30,416×calibrated magnification using an Orius SC200W CCD camera (Gatan Inc.).

boron transporter (Bor1) = target: T2, boron transporter (Bor1) (Arabidopsis thaliana, UniProt Q8VYR7); assay: Structural stability and extraction of Bor1 by heat fluorescence size exclusion chromatography (hFSEC); conditions: for level of Bor1 protein aggregation after heat treatment: 40° C. for 10 minutes, FIG. 18
T2 construct: made in house; host or cells: Saccharomyces cerevisiae FGY217
Method: An experiment for measuring the structural stability of a boron transporter (Bor1) by the MNAs was performed. The structural stability of Bor1 was measured using heat fluorescence size exclusion chromatography (hFSEC), and the concentrations of the MNAs and DDM were CMC plus 0.04% by weight. Specifically, Bor1 of Arabidopsis thaliana was expressed in Saccharomyces cerevisiae FGY217 cells as a fusion protein having a C-terminal GFP-His tag. The cells were grown in a -URA medium supplemented with 0.1% glucose. Expression of proteins was induced by adding 2% galactose, and the cells were then cultured at 20° C. for 18 hours. Here, the cell culture was carried out according to the method described in the article by D. Drew et al. (Nat. Protoc. 2008, 3, 784-798.). The cells were collected to prepare membranes, and the cell collection was carried out according to the method described in the article by J. Leung et al. (Protein Expr. Purif. 2010, 72, 139-146.). The membranes including the Bor1-GFP fusion protein were diluted with phosphate-buffered saline (PBS, pH 7.4) until the final concentration of the total proteins reached 2.8 mg/mL. In this case, 1% by weight of DDM or 1% by weight of MNA (MNA-1, MNA-2, MNA-3, MNA-4, MNA-5, MNA-6, or MNA-7) was added to the PBS. Samples were incubated for an hour while shaking at 4° C., and insoluble materials were then removed by centrifugation at 14,000 g and 4° C. for an hour. The supernatant including the dissolved protein samples was heated at 40° C. for 10 minutes, and the strongly aggregated proteins were removed by centrifugation at 14,000 g and 4° C. for 10 minutes. 200 μL of the supernatant of the samples was injected into a Superose 6 10/300 column equilibrated with 20 mM Tris (pH 7.5), 150 mM NaCl, and 0.03% DDM. Each of elution fractions was collected in 200 μL fractions at a retention volume of 6.4 mL (e.g., 6.4 mL after elusion) in a clear bottom 96-well plate. The GFP fluorescence of each of the fractions was measured at an excitation wavelength of 470 nm and an emission wavelength of 512 nm.

[4] = target: T1, human β2 adrenergic receptor (β2AR); assay: Size exclusion chromatography (SEC) of β2AR protein-detergent complexes (PDCs); conditions: Superdex-200, FIG. 23
Method: An SEC analysis was performed to determine the size of the protein-amphipathic molecule complex (i.e., a protein-detergent complex (PDC)) formed by DDM, MNA-6, or MNA-7.
Specifically, the β2AR dissolved in DDM, MNA-6 or MNA-7 was used as a test sample in the same manner as used in Example 5-3. The sample was loaded onto a Superdex-200 10/300 GL column (GE Healthcare) at 0.5 ml/min, an innate tryptophane fluorescence signal was measured at an excitation wavelength of 295 nm and an emission wavelength of 345 nm. A running buffer includes 20 mM HEPES pH 7.5, 100 mM NaCl, and 20×CMC MNA-6 or MNA-7. A difference in retention volume of the protein samples means a difference in size of the protein-detergent complexes (PDCs) formed in the presence of the amphipathic molecules.

[5] = target: T1, human β2 adrenergic receptor (β2AR); assay: mBBr-β2AR bimane spectra at detergent concentration below CMC; assay type: biochemical; conditions: detergent diluted to a fiftieth of its CMC, compared to DDM, FIG. 21
Method: Experiments for comparing the structural changes of the β2AR protein by the MNAs and DDM at a concentration below CMCs of the amphipathic molecules were performed.
Specifically, 0.5 μL of a non-ligand mBBr-labeled receptor dissolved at 50 μNI in a 20×CMC concentration of MNA-5, MNA-6, or MNA-7 was diluted with 500 μL of an NH buffer (20 mM HEPES pH 7.5, and 100 mM NaCl). The proteins were cultured for 30 minutes, and the bimane spectra thereof were measured. The receptor dissolved in 0.1% DDM was diluted with the NH buffer, and used as the control. Data was presented as an average of three separate experiments performed in triplicate.

T1 sequence (P07550 whole entry): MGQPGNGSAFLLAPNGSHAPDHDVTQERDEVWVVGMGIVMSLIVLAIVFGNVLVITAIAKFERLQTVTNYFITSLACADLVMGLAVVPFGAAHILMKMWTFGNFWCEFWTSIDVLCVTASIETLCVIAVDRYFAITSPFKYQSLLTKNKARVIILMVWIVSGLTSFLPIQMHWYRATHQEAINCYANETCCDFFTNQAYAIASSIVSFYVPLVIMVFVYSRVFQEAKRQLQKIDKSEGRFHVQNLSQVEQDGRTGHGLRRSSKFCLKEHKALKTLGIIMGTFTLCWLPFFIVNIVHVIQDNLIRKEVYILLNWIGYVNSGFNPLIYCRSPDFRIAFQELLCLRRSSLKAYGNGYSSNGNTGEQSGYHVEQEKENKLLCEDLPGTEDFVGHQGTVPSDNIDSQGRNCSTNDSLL
T2 sequence (Q8VYR7 whole entry): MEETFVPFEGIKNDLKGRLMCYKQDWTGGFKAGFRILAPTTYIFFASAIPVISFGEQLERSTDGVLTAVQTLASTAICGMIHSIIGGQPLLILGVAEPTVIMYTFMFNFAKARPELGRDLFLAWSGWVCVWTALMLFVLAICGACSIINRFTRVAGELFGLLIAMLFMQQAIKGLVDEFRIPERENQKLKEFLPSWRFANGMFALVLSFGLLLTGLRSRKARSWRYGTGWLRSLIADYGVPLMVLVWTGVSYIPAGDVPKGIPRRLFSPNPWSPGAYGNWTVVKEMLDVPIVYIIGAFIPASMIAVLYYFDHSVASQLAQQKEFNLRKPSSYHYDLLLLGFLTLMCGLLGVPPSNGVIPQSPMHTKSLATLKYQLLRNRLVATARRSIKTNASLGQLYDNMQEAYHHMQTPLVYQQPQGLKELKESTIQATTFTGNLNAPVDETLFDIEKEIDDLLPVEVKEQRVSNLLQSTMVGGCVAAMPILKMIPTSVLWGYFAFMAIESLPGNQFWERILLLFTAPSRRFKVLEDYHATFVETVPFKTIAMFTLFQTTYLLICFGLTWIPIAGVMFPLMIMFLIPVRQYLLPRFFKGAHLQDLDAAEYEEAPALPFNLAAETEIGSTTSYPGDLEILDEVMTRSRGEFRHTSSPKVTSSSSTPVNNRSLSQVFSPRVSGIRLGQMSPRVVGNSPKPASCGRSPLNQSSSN

Row | SMILES | CMC ([1]; aqueous solution) [mM] | Rh (nm), hydrodynamic radius of micelles [2] | CMC value [1] [µM] | EM image background of dissolved β2AR [3] | level of Bor1 protein aggregation after heat treatment (boron transporter (Bor1); hFSEC) | size of β2AR protein-detergent complexes (PDCs) [4] | stability of β2AR [5] | CMC (% by weight) ([1]; aqueous solution) | Bor1 extraction efficiency (boron transporter (Bor1); 1% by weight detergent, membranes with Bor1-GFP) [%] | effect on stabilization of Bor1 (boron transporter (Bor1); hFSEC, aggregation level and size of target protein peak)
1 | CCCCCCCCCCCCCCCO[C@H]([C@@H](OCCCCCCCCCCCCCCC)[C@H](CO[C@@H]1OC(CO)[C@@H](O)C(O)C1O)O[C@@H]1OC(CO)[C@@H](O)C(O)C1O)[C@H](CO[C@@H]1OC(CO)[C@@H](O)C(O)C1O)O[C@@H]1OC(CO)[C@@H](O)C(O)C1O (some centres unmarked) [MNA-8] | ~0.003 | 3.5 nm and 3.5 ± 0.1 nm | – | – | – | – | – | – | – | –
2 | CCCCCCCCCCCCCCO[C@H]([C@@H](OCCCCCCCCCCCCCC)[C@H](CO[C@@H]1OC(CO)[C@@H](O)C(O)C1O)O[C@@H]1OC(CO)[C@@H](O)C(O)C1O)[C@H](CO[C@@H]1OC(CO)[C@@H](O)C(O)C1O)O[C@@H]1OC(CO)[C@@H](O)C(O)C1O (some centres unmarked) [MNA-7] | ~0.001 | 3.3 nm and 3.3 ± 0.08 nm | 1 | uniform background clutter that were relatively smaller in quantity | lower level of Borl aggregation than DDM | smaller in size compared to those formed by DDM | secured for a prolonged period of time | – | – | –
3 | CCCCCCCCCCCO[C@H]([C@@H](OCCCCCCCCCCC)[C@H](CO[C@@H]1OC(CO)[C@@H](O)C(O)C1O)O[C@@H]1OC(CO)[C@@H](O)C(O)C1O)[C@H](CO[C@@H]1OC(CO)[C@@H](O)C(O)C1O)O[C@@H]1OC(CO)[C@@H](O)C(O)C1O (some centres unmarked) [MNA-4] | ~0.006 | 2.9 nm and 2.9 ± 0.12 nm | – | – | level of protein aggregation similar to DDM | – | – | – | – | –
4 | CCCCCCCCCCO[C@H]([C@@H](OCCCCCCCCCC)[C@H](CO[C@@H]1OC(CO)[C@@H](O)C(O)C1O)O[C@@H]1OC(CO)[C@@H](O)C(O)C1O)[C@H](CO[C@@H]1OC(CO)[C@@H](O)C(O)C1O)O[C@@H]1OC(CO)[C@@H](O)C(O)C1O (some centres unmarked) [MNA-3] | ~0.015 | 2.7 nm and 2.7 ± 0.04 nm | – | – | – | – | – | – | – | –
5 | CCCCCCCCCCCCO[C@@H]1O[C@H](CO)[C@@H](O[C@H]2O[C@H](CO)[C@@H](O)[C@H](O)[C@H]2O)[C@H](O)[C@H]1O [DDM, n-dodecyl-β-D-maltopyranoside, reference compound] | ~0.17 | 3.4 nm and 3.4 ± 0.03 nm | 170 | – | significant level of protein aggregation | – | – | Approximately 0.0087 % by weight | 80 | –
6 | CCCCCCCCCO[C@H]([C@@H](OCCCCCCCCC)[C@H](CO[C@@H]1OC(CO)[C@@H](O)C(O)C1O)O[C@@H]1OC(CO)[C@@H](O)C(O)C1O)[C@H](CO[C@@H]1OC(CO)[C@@H](O)C(O)C1O)O[C@@H]1OC(CO)[C@@H](O)C(O)C1O (some centres unmarked) [MNA-2] | ~0.05 | 2.5 nm and 2.5 ± 0.05 nm | – | – | – | – | – | – | – | –
7 | CCCCCCCCCCCCCCCCCO[C@H]([C@@H](OCCCCCCCCCCCCCCCCC)[C@H](CO[C@@H]1OC(CO)[C@@H](O)C(O)C1O)O[C@@H]1OC(CO)[C@@H](O)C(O)C1O)[C@H](CO[C@@H]1OC(CO)[C@@H](O)C(O)C1O)O[C@@H]1OC(CO)[C@@H](O)C(O)C1O (some centres unmarked) [MNA-10] | ~0.001 | 4.1 nm and 4.1 ± 0.2 nm | 1 | – | – | – | – | – | – | –
8 | CCCCCCCCO[C@H]([C@@H](OCCCCCCCC)[C@H](CO[C@@H]1OC(CO)[C@@H](O)C(O)C1O)O[C@@H]1OC(CO)[C@@H](O)C(O)C1O)[C@H](CO[C@@H]1OC(CO)[C@@H](O)C(O)C1O)O[C@@H]1OC(CO)[C@@H](O)C(O)C1O (some centres unmarked) [MNA-1] | ~0.15 | 2.3 nm and 2.3 ± 0.13 nm | – | – | – | – | – | – | – | –
9 | CCCCCCCCCCCCCO[C@H]([C@@H](OCCCCCCCCCCCCC)[C@H](CO[C@@H]1OC(CO)[C@@H](O)C(O)C1O)O[C@@H]1OC(CO)[C@@H](O)C(O)C1O)[C@H](CO[C@@H]1OC(CO)[C@@H](O)C(O)C1O)O[C@@H]1OC(CO)[C@@H](O)C(O)C1O (some centres unmarked) [MNA-6] | ~0.002 | 3.3 nm and 3.3 ± 0.04 nm | 2 | uniform background clutter that were relatively smaller in quantity | lower level of Bor1 aggregation than DDM | smaller in size compared to those formed by DDM | secured for a prolonged period of time | – | – | best effect on stabilization of the Bor1
10 | CCCCCCCCCCCCCCCCO[C@H]([C@@H](OCCCCCCCCCCCCCCCC)[C@H](CO[C@@H]1OC(CO)[C@@H](O)C(O)C1O)O[C@@H]1OC(CO)[C@@H](O)C(O)C1O)[C@H](CO[C@@H]1OC(CO)[C@@H](O)C(O)C1O)O[C@@H]1OC(CO)[C@@H](O)C(O)C1O (some centres unmarked) [MNA-9] | ~0.001 | 3.8 nm and 3.8 ± 0.1 nm | 1 | – | – | – | – | – | – | –

— patent US10889609B2, “Mannitol-based amphipathic compound and use thereof” (Industry-University Cooperation Foundation Hanyang …, priority 2015, dated 2021)
